Molecules are shown by their SMILES. Inconclusive results are not listed. The source made the active and inactive calls.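 The calls were made as follows: active = compound lowering the normal-ribosome reporter at least twice as much as the humanized-ribosome reporter, growth loss under a set limit; inconclusive = no clear call, values can overlap the other calls; inactive = the rest.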 Where only a bound is given, the exact number is not on record here.

A word on the AC50: it is the concentration giving half of the maximal activity seen.

The test system of test [1] is E. coli WT GFP strain growth, fluorescence, 24 h. Kind of test: E. coli growth inhibition, wild-type GFP versus h24 humanized RFP strain, dose response, h24 mutant RFP vs wild-type GFP, cherry-pick (AID 977628).
The subject of test [2] is E. coli mixed WT/h24 culture total growth, OD600, 24 h. Described as above.

`Cc1cc(Cl)n2ncc(-c3ccccc3)c2n1`: the AC50 is > 100 µM (inactive) in test [1] and over 100 µM in test [2].

`Cc1nnn(C23CC4CC(CC(CC(=O)Nc5ccc(C)c(C)c5)(C4)C2)C3)n1`: the results for the AC50 in test [1] and in test [2] were > 100 µM (inactive) and over 100 µM, respectively.

Turning to `NC(=O)C1Cc2ccccc2CN1C(=O)c1cc(C2CC2)nn1-c1ccccc1` (stereo not drawn), the AC50 is > 100 µM (inactive) in test [1] and 46.8 µM in test [2].

As for `CCCNC(=O)c1noc2c1CCc1cc(OC)ccc1-2`, the AC50 in test [1] was > 100 µM (inactive); in test [2], 34.8 µM.

Take `CCN(CC)S(=O)(=O)c1ccc(O)c(C(=O)OCC(=O)NC23CC4CC(CC(C4)C2)C3)c1`: the AC50 in test [1] was > 100 µM (inactive); in test [2], over 100 µM.

As for `COc1ccc(S(=O)(=O)Cc2ccc(C(=O)N3CCN(c4cc(Cl)ccc4C)CC3)o2)cc1`, the AC50 was > 100 µM (inactive) in test [1] and 49.9 µM in test [2].

Consider `CCOC(=O)c1ccc(CC(=O)c2oc3cc(O)ccc3c2C)o1`, for which the AC50 in test [1] was > 100 µM (inactive); in test [2], over 100 µM.

With `Cc1nc([N+](=O)[O-])c(Br)n1CC(=O)c1ccc(F)cc1`, the AC50 in test [1] is > 100 µM (inactive); in test [2], over 100 µM.

For the compound `Fc1ccc(-n2cc(CNCCc3cccnc3)c(-c3ccccc3Cl)n2)cc1`, the AC50 in test [1] is > 100 µM (inactive); in test [2] it was 49.2 µM.

On to `COc1ccc(OC)c(C(=O)COC(=O)c2ccc([N+](=O)[O-])o2)c1`, for which the results for the AC50 in test [1] and in test [2] were > 100 µM (inactive) and over 100 µM, respectively.

Turning to `CCOc1ccc(OCCn2c(=S)[nH]c3c(N)ncnc32)cc1`, the results for the AC50 in test [1] and in test [2] were > 100 µM (inactive) and 47.8 µM, respectively.

Consider `Cc1ccc(NC(=O)c2ccc(CSc3ccccn3)cc2)c(O)c1`, for which the AC50 in test [1] is > 100 µM (inactive); in test [2] it was 22.2 µM.

Regarding `CCOC(=O)c1nc(C)sc1-c1ccnn1S(=O)(=O)c1cccc(Cl)c1`, the AC50 in test [1] was > 100 µM (inactive); in test [2], 41.7 µM.

Consider `COc1cc(C(F)(F)F)c(C(=O)N(C)Cc2ccc(Cl)c(Cl)c2)cn1`, for which the AC50 in test [1] is > 100 µM (inactive); in test [2] it was over 100 µM.

In the case of `O=C(NCc1ccc(Cl)cc1)c1csc(-c2cccnc2)n1`, the AC50 was > 100 µM (inactive) in test [1] and 49.1 µM in test [2].

On to `C=CCn1c(CCSCc2ccc(OC)c(C)c2)n[nH]c1=S`, for which the AC50 in test [1] is > 100 µM (inactive); in test [2], 51.2 µM.

In the case of `C=CCn1c(-c2sc(-c3ccccc3)nc2C)n[nH]c1=S`, the AC50 is > 100 µM (inactive) in test [1] and over 100 µM in test [2].

In the case of `O=C(Cn1c(CO)nc2ccccc21)NCCc1ccc(F)cc1`, the figures for the AC50 in test [1] and in test [2] were > 100 µM (inactive) and over 100 µM, respectively.

With `CC1CCN(c2ccc3nnc(CCC(=O)Nc4cccc(F)c4)n3n2)CC1`, the values for the AC50 in test [1] and in test [2] were > 100 µM (inactive) and over 100 µM, respectively.

On to `CC(C)(C)c1cc(-c2n[nH]c(=S)n2-c2ccc(Cl)cc2)n[nH]1`, for which the AC50 in test [1] was > 100 µM (inactive); in test [2] it was over 100 µM.

As for `COC(=O)c1c(C)oc(C)c1S(=O)(=O)NC(c1ccccc1)c1ccccc1`, the AC50 in test [1] was > 100 µM (inactive); in test [2], 44.4 µM.

For `COc1cc(OC)cc(C(=O)Nc2ccc(S(=O)(=O)Nc3cnc4ccccc4n3)cc2)c1`, the AC50 in test [1] was > 100 µM (inactive); in test [2], 42.2 µM.

For the compound `CSc1c(-c2ccccn2)c(N)nn1C(=O)C1CC1`, the AC50 in test [1] is > 100 µM (inactive); in test [2], over 100 µM.

With `Cc1cc(NC(=O)CS(=O)(=O)c2cn(Cc3cccc(Br)c3)c3ccccc23)no1`, the AC50 was > 100 µM (inactive) in test [1] and 40 µM in test [2].

Take `Cc1cc(C(=O)OCC(=O)Nc2cccc(S(N)(=O)=O)c2)c2ccccc2n1`: the AC50 in test [1] was > 100 µM (inactive); in test [2], over 100 µM.

With `COc1ccc(C(=O)COC(=O)c2ccccc2O)c(OC)c1`, the figures for the AC50 in test [1] and in test [2] were > 100 µM (inactive) and 40 µM, respectively.

With `C=C1SC(Nc2c(C)cc(C)cc2C)=NC12CCCCC2`, the AC50 is > 100 µM (inactive) in test [1] and 22.8 µM in test [2].

For the compound `COc1ccc(OC)c(NC(=O)COC(=O)C2CCN(C(=O)c3ccc(Cl)cc3)CC2)c1`, the AC50 in test [1] is > 100 µM (inactive); in test [2] it was over 100 µM.

As for `CCCn1c(=O)c2ccccc2n2c(SCCOc3ccc(OC)cc3)nnc12`, the AC50 in test [1] was > 100 µM (inactive); in test [2], over 100 µM.

Turning to `COC(=O)c1cc(C(=O)Cc2ccccc2)c[nH]1`, the AC50 was > 100 µM (inactive) in test [1] and over 100 µM in test [2].

In the case of `O=C(CCCn1c(=S)[nH]c2ccsc2c1=O)Nc1ccc2c(c1)OCCO2`, the figures for the AC50 in test [1] and in test [2] were > 100 µM (inactive) and 46.7 µM, respectively.

Regarding `O=C(Cn1cc(COc2c(F)c(F)cc(F)c2F)nn1)c1ccc(O)cc1`, the AC50 in test [1] was > 100 µM (inactive); in test [2], over 100 µM.

With `Cc1cc(OCC(=O)N(Cc2ccco2)C2CCS(=O)(=O)C2)ccc1Cl` (stereo not drawn), the values for the AC50 in test [1] and in test [2] were > 100 µM (inactive) and over 100 µM, respectively.

Regarding `O=C(CCc1ccccc1)Nc1sc2c(c1C(=O)O)CCCC2`, the AC50 was > 100 µM (inactive) in test [1] and 52.3 µM in test [2].

`Cn1cnc(CCNC(=O)C[C@H]2CC[C@@H]3[C@H](COC[C@H](O)CN3C(=O)Nc3ccc(Cl)cc3)O2)c1`: the AC50 was > 100 µM (inactive) in test [1] and over 100 µM in test [2].

As to `CCN(c1ccccc1)S(=O)(=O)c1ccc(OC)c(OC)c1`, the values for the AC50 in test [1] and in test [2] were > 100 µM (inactive) and over 100 µM, respectively.

On to `N#CCC(=O)Nc1ccc(C(=O)OCC(=O)Nc2ccc3ccccc3c2)cc1`, for which the AC50 was > 100 µM (inactive) in test [1] and over 100 µM in test [2].

With `COc1ccc(C(=O)Nc2ccc(Nc3ccccc3)cc2)cc1[N+](=O)[O-]`, the AC50 in test [1] is > 100 µM (inactive); in test [2], over 100 µM.

For `COC(=O)c1ccc2nc(-c3ccc(OC)c(OC)c3)c(Cc3ccc(C)cc3)n2c1`, the AC50 in test [1] was > 100 µM (inactive); in test [2] it was over 100 µM.

For the compound `COC(=O)c1ccc(CSc2nc(-c3ccccc3)cs2)o1`, the AC50 in test [1] is > 100 µM (inactive); in test [2] it was 27.1 µM.

As to `O=C(NCC(c1ccc(F)cc1)N1CCOCC1)c1ccc([N+](=O)[O-])o1` (stereo not drawn), the figures for the AC50 in test [1] and in test [2] were > 100 µM (inactive) and over 100 µM, respectively.

`CCOC(=O)c1[nH]c2ccccc2c1NC(=O)c1ccc(Br)o1`: the figures for the AC50 in test [1] and in test [2] were > 100 µM (inactive) and 41.7 µM, respectively.

Consider `OCCN(Cc1ccccc1)Cc1ccc(Cl)cc1`, for which the values for the AC50 in test [1] and in test [2] were > 100 µM (inactive) and over 100 µM, respectively.

With `CN(C)Cc1nc2ccccc2c(=O)n1Cc1nc(-c2cccc([N+](=O)[O-])c2)cs1`, the figures for the AC50 in test [1] and in test [2] were > 100 µM (inactive) and over 100 µM, respectively.

In the case of `COc1ccc(CNC(=O)c2cc3c(s2)CN(Cc2ccccc2)C3)cc1`, the AC50 in test [1] is > 100 µM (inactive); in test [2] it was over 100 µM.

Take `Cc1cc(NC(=O)COC(=O)CSCc2ccc(Cl)c(Cl)c2)no1`: the AC50 in test [1] was > 100 µM (inactive); in test [2] it was over 100 µM.

Consider `CC(C)Oc1cccc(C(=O)C2CCCN(Cc3ccc4nonc4c3)C2)c1` (stereo not drawn), for which the AC50 in test [1] was > 100 µM (inactive); in test [2], 36.8 µM.

Consider `Cc1ccc(NC(=O)CCCSc2ccccc2)cc1S(=O)(=O)N1CCOCC1`, for which the AC50 in test [1] is > 100 µM (inactive); in test [2] it was over 100 µM.

Consider `C=CCn1c(-c2cc3cccc(OC)c3o2)n[nH]c1=S`, for which the AC50 in test [1] is > 100 µM (inactive); in test [2], over 100 µM.

In the case of `O=C(Nc1ccc(F)cc1)N1CCCCN2[C@@H](CO)[C@H](c3ccc(-c4ccncc4)cc3)[C@@H]2C1`, the AC50 was > 100 µM (inactive) in test [1] and over 100 µM in test [2].

Take `COc1ccc(NC(=O)CN(c2ccccc2OC)S(=O)(=O)c2cccs2)cc1Cl`: the AC50 was > 100 µM (inactive) in test [1] and over 100 µM in test [2].

For `CN(C)C(=O)C1C2NC(=S)N(c3cccc(Cl)c3)C1(C)Oc1ccc(Cl)cc12` (stereo not drawn), the AC50 was > 100 µM (inactive) in test [1] and over 100 µM in test [2].

As for `NC(=O)C1CCN(c2cc(Cl)ccc2[N+](=O)[O-])CC1`, the AC50 in test [1] is > 100 µM (inactive); in test [2] it was over 100 µM.

Turning to `O=C(NCc1ccc(S(=O)(=O)Nc2ccccc2Cl)s1)c1ccccc1`, the AC50 is > 100 µM (inactive) in test [1] and over 100 µM in test [2].

For the compound `Cc1c(C(=O)N(Cc2ccc(F)cc2)C2CCS(=O)(=O)C2)oc2ccccc12` (stereo not drawn), the results for the AC50 in test [1] and in test [2] were > 100 µM (inactive) and over 100 µM, respectively.

With `NC(=O)c1ccsc1NC(=O)COC(=O)CCOc1ccccc1`, the figures for the AC50 in test [1] and in test [2] were > 100 µM (inactive) and 46.3 µM, respectively.

Take `S=C1SCN(Cc2cccnc2)CN1Cc1ccccc1`: the AC50 is > 100 µM (inactive) in test [1] and over 100 µM in test [2].

Consider `COC(=O)C(Cc1csc2ccc(Cl)cc12)NC(=O)c1ccc(Cl)cc1` (stereo not drawn), for which the AC50 was > 100 µM (inactive) in test [1] and 31 µM in test [2].

Take `CCC(=O)Nc1nc2c(OC)ccc(OC)c2s1`: the AC50 was > 100 µM (inactive) in test [1] and over 100 µM in test [2].

`O=C(c1ccc(-c2ccccc2)c(F)c1)C1CCCN(CCCn2cccn2)C1` (stereo not drawn): the AC50 is > 100 µM (inactive) in test [1] and over 100 µM in test [2].

`Cc1ccc2nc(N(CCN(C)C)C(=O)C3CCN(S(=O)(=O)c4cccs4)CC3)sc2c1`: the results for the AC50 in test [1] and in test [2] were > 100 µM (inactive) and over 100 µM, respectively.

Consider `CN1C(=O)c2cccc3c(S(=O)(=O)NCCc4ccccc4)ccc1c23`, for which the AC50 in test [1] is > 100 µM (inactive); in test [2] it was over 100 µM.

With `Cc1cccc(OCCC(=O)Nc2ccc(F)c(F)c2)c1`, the figures for the AC50 in test [1] and in test [2] were > 100 µM (inactive) and over 100 µM, respectively.

With `COC(=O)[C@@H](Cc1c[nH]c2ccccc12)NCc1cccc(B(O)O)c1`, the AC50 in test [1] is > 100 µM (inactive); in test [2], over 100 µM.

For the origin of these results see PubChem BioAssay AID977628 (Broad Institute, 2014).
